Measured values: ChEMBL document CHEMBL3885861, “Open TG-GATES”

Species on record: Rattus norvegicus
Test: Open TG-GATES - Regimen: Single
Format: toxicity, organism-based, Sprague-Dawley
Set-up: regimen Single, gender Male, age 6 weeks
Conditions: in vivo, po, 0 mg/kg, route gavage, dose level Control; for Bas / Eos / Hb / Ht / Lym / MCH / MCHC / MCV / Mono / Neu / Plat / RBC / Ret / WBC: tissue Blood; for KIDNEY_L / KIDNEY_R / KIDNEY_TOTAL: tissue Kidney; for LIVER: tissue Liver; for A/G / ALP / ALT / AST / BUN / CRE / Ca / Cl / DBIL / GLC / IP / K / LDH / Na / PL / RALB / TBIL / TC / TG / TP / gamma-GTP: tissue Plasma

Cc1ccc2cc3c(ccc4ccccc43)c3c2c1CC3 [3-METHYLCHOLANTHRENE]
TERMINAL_BW (3 h): 209.2 g | Bas (3 h): 0% | Eos (3 h): 0.6% | Hb (3 h): 12.8 g/dL | Ht (3 h): 39.3% | Lym (3 h): 79.2% | MCH (3 h): 20.8 pg | MCHC (3 h): 32.6% | MCV (3 h): 63.7 fL | Mono (3 h): 3.6% | Neu (3 h): 16.2% | Plat (3 h): 126.1 x10_4/uL | RBC (3 h): 616.6 x10_4/ul | Ret (3 h): 8.7% | WBC (3 h): 119.3 x10_2/uL | KIDNEY_L (3 h): 0.9 g | KIDNEY_R (3 h): 0.9 g | KIDNEY_TOTAL (3 h): 1.9 g | LIVER (3 h): 9.3 g | A/G (3 h): 1.1 | ALP (3 h): 1726.2 IU/L | ALT (3 h): 46.2 IU/L | AST (3 h): 77.6 IU/L | BUN (3 h): 10.5 mg/dL | CRE (3 h): 0.1 mg/dL | Ca (3 h): 10.7 mg/dL | Cl (3 h): 104.3 meq/L | DBIL (3 h): 0.002 mg/dL | GLC (3 h): 185.2 mg/dL | IP (3 h): 7.7 mg/dL | K (3 h): 3.9 meq/L | LDH (3 h): 179.6 IU/L | Na (3 h): 140.3 meq/L | PL (3 h): 163.8 mg/dL | RALB (3 h): 2.8 g/dL | TBIL (3 h): 0.002 mg/dL | TC (3 h): 77.2 mg/dL | TG (3 h): 142.8 mg/dL | TP (3 h): 5.6 g/dL | gamma-GTP (3 h): 0.7 IU/L | TERMINAL_BW (6 h): 206.1 g | Bas (6 h): 0% | Eos (6 h): 0.6% | Hb (6 h): 12.8 g/dL | Ht (6 h): 38.9% | Lym (6 h): 69% | MCH (6 h): 20.7 pg | MCHC (6 h): 32.8% | MCV (6 h): 63.2 fL | Mono (6 h): 3.4% | Neu (6 h): 26.2% | Plat (6 h): 124.5 x10_4/uL | RBC (6 h): 616.2 x10_4/ul | Ret (6 h): 8.7% | WBC (6 h): 125.8 x10_2/uL | KIDNEY_L (6 h): 0.9 g | KIDNEY_R (6 h): 0.9 g | KIDNEY_TOTAL (6 h): 1.8 g | LIVER (6 h): 8.4 g | A/G (6 h): 1 | ALP (6 h): 1728.2 IU/L | ALT (6 h): 38 IU/L | AST (6 h): 69.6 IU/L | BUN (6 h): 8.9 mg/dL | CRE (6 h): 0.1 mg/dL | Ca (6 h): 10.4 mg/dL | Cl (6 h): 104.5 meq/L | DBIL (6 h): 0.002 mg/dL | GLC (6 h): 201.6 mg/dL | IP (6 h): 9.9 mg/dL | K (6 h): 4.3 meq/L | LDH (6 h): 114.8 IU/L | Na (6 h): 139.9 meq/L | PL (6 h): 142.4 mg/dL | RALB (6 h): 2.7 g/dL | TBIL (6 h): 0.014 mg/dL | TC (6 h): 80.2 mg/dL | TG (6 h): 51 mg/dL | TP (6 h): 5.5 g/dL | gamma-GTP (6 h): 0.7 IU/L | TERMINAL_BW (9 h): 204.4 g | Bas (9 h): 0% | Eos (9 h): 0.6% | Hb (9 h): 12.5 g/dL | Ht (9 h): 38.9% | Lym (9 h): 75.2% | MCH (9 h): 20.7 pg | MCHC (9 h): 32.1% | MCV (9 h): 64.5 fL | Mono (9 h): 2.6% | Neu (9 h): 21% | Plat (9 h): 129.6 x10_4/uL | RBC (9 h): 603.8 x10_4/ul | Ret (9 h): 9% | WBC (9 h): 80.7 x10_2/uL | KIDNEY_L (9 h): 1 g | KIDNEY_R (9 h): 1 g | KIDNEY_TOTAL (9 h): 1.9 g | LIVER (9 h): 8.4 g | A/G (9 h): 1 | ALP (9 h): 1550.4 IU/L | ALT (9 h): 33.8 IU/L | AST (9 h): 63.4 IU/L | BUN (9 h): 10.6 mg/dL | CRE (9 h): 0.1 mg/dL | Ca (9 h): 10.6 mg/dL | Cl (9 h): 103.4 meq/L | DBIL (9 h): 0.004 mg/dL | GLC (9 h): 176.6 mg/dL | IP (9 h): 10.9 mg/dL | K (9 h): 4.4 meq/L | LDH (9 h): 137.8 IU/L | Na (9 h): 141.6 meq/L | PL (9 h): 132.2 mg/dL | RALB (9 h): 2.7 g/dL | TBIL (9 h): 0.006 mg/dL | TC (9 h): 71.4 mg/dL | TG (9 h): 52.7 mg/dL | TP (9 h): 5.5 g/dL | gamma-GTP (9 h): 0.7 IU/L | TERMINAL_BW (24 h): 220.6 g | Bas (24 h): 0% | Eos (24 h): 0.6% | Hb (24 h): 12.6 g/dL | Ht (24 h): 38.4% | Lym (24 h): 79.4% | MCH (24 h): 20.5 pg | MCHC (24 h): 32.7% | MCV (24 h): 62.7 fL | Mono (24 h): 3.2% | Neu (24 h): 16% | Plat (24 h): 119.3 x10_4/uL | RBC (24 h): 612.8 x10_4/ul | Ret (24 h): 8% | WBC (24 h): 100 x10_2/uL | KIDNEY_L (24 h): 0.9 g | KIDNEY_R (24 h): 1 g | KIDNEY_TOTAL (24 h): 1.9 g | LIVER (24 h): 9.8 g | A/G (24 h): 1 | ALP (24 h): 1697 IU/L | ALT (24 h): 38 IU/L | AST (24 h): 72 IU/L | BUN (24 h): 13.8 mg/dL | CRE (24 h): 0.1 mg/dL | Ca (24 h): 10.9 mg/dL | Cl (24 h): 103 meq/L | DBIL (24 h): 0 mg/dL | GLC (24 h): 186.2 mg/dL | IP (24 h): 7.1 mg/dL | K (24 h): 4.4 meq/L | LDH (24 h): 181 IU/L | Na (24 h): 142 meq/L | PL (24 h): 160.8 mg/dL | RALB (24 h): 2.8 g/dL | TBIL (24 h): 0.006 mg/dL | TC (24 h): 82 mg/dL | TG (24 h): 134.9 mg/dL | TP (24 h): 5.5 g/dL | gamma-GTP (24 h): 0.8 IU/L
